Source: article PMC10057893, “Synthesis and Biological Evaluation of New Schiff Bases Derived from 4-Amino-5-(3-fluorophenyl)-1,2,4-triazole-3-thione” (Molecules, 2023)
In brackets after ≈: the same amount, converted by molar mass. Read-outs that look alike come from different tables or passages of the source.

Columns and labels:
[1] = test system: Bacillus subtilis ATCC 6633; assay: Broth microdilution MIC/MBC, antibacterial; assay type: cell-based; conditions: ATCC6633
Experimental: (§1) The minimal inhibitory concentration (MIC) was determined with the microdilution technique using 96-well polystyrene microplates (Medlab, Poland), as indicated by the European Committee on Antimicrobial Susceptibility Testing (EUCAST) guidelines. In this process, stock solutions of each tested Schiff base dissolved in dimethylsulphoxide (DMSO, Stanlab, Poland) were used at a concentration of 50 mg/mL. Before in vitro antibacterial activity detection, the basic concentration of 1000 µg/mL of each compound was prepared with Mueller–Hinton broth medium (MHB, BioMaxima, Lublin, Poland). The experiment was prepared using Mueller–Hinton broth medium in 96-well microplates. A series of two-fold dilutions of the tested compounds in the concentration range from 0.49 to 1000 μg/mL was made in culture broth medium. Then, 2 μL of bacterial inoculum with a density of 0.5 McFarland standard was added to each well. Each well was filled with a total volume of 100 μL. Then, the microtiter plates were incubated for 18 ± 2 h at 35 °C. After the incubation, the results were spectrophotometrically determined in Biotek ELx800 (Biokom, Janki, Poland) at 600 nm (OD600). The lowest concentration of the tested compounds with the absence of bacterial growth was determined as an MIC. Three replicates for each strain and compound were performed.
(§2) After incubation, 5 μL of the broth media cultured with bacteria or fungi were removed from each well of the plates used in the MIC experiments. Next, they were culturd onto the surface of the MHA medium (BioMaxima, Lublin, Poland) plate for bacteria or MHA +2% glucose plate for yeasts. The inoculated plates were incubated in the conditions mentioned above. After incubation, a visual reading of MBC or MFC values was made. […] Three replicates for each strain and compound were performed.

[2] = test system: Micrococcus luteus ATCC 10240; assay: Broth microdilution MIC/MBC, antibacterial; assay type: cell-based; conditions: ATCC10240
Experimental: as §1, §2

[3] = test system: Pseudomonas aeruginosa ATCC 27853; assay: Broth microdilution MIC/MBC, antibacterial; assay type: cell-based; conditions: ATCC27853
Experimental: as §1, §2

[4] = test system: Staphylococcus aureus ATCC 6538; assay: Broth microdilution MIC/MBC, antibacterial; assay type: cell-based; conditions: ATCC6538
Experimental: as §1, §2

[5] = test system: Staphylococcus epidermidis ATCC 12228; assay: Broth microdilution MIC/MBC, antibacterial; assay type: cell-based; conditions: ATCC12228
Experimental: as §1, §2

[6] = test system: Candida albicans ATCC 10231; assay: Broth microdilution MIC/MFC, antifungal; assay type: cell-based; conditions: for MIC: ATCC10231; for MFC: ATCC10231, read-out: MFC
Experimental: (§3) To determine the antifungal activity of the newly synthesized Schiff bases against the reference strains of Candida spp., the broth microdilution method was used according to the EUCAST [52] and Clinical and Laboratory Standards Institute (CLSI) guidelines with some modifications to the medium. Before in vitro antifungal activity detection, the basic concentration of 1000 µg/mL of each compound was prepared with Mueller–Hinton broth (BioMaxima, Lublin, Poland) supplemented with 2% glucose (MHB+2% glucose). […] The final concentrations of the Schiff bases ranged from […] to 1000 µg/mL. All the reference strains of Candida spp. used were first subcultured to the Mueller–Hinton agar medium (BioMaxima, Lublin, Poland) with 2% glucose (MHA +2% glucose) at 37 °C for 24 h. Next, 2 µL of appropriate fungal suspensions was added to each well containing 100 µL of MHB + 2% glucose and the various concentrations of the tested Schiff bases.
as §2

Candida auris CDC B11903 = assay: Broth microdilution MIC/MFC, antifungal; assay type: cell-based; conditions: Candidozyma auris, CDCB11903
Experimental: as §3, §2

[7] = test system: Candida glabrata ATCC 15126; assay: Broth microdilution MIC/MFC, antifungal; assay type: cell-based; conditions: Nakaseomyces glabratus, ATCC15126
Experimental: as §3, §2

[8] = test system: Candida glabrata ATCC 90030; assay: Broth microdilution MIC/MFC, antifungal; assay type: cell-based; conditions: Nakaseomyces glabratus, ATCC90030
Experimental: as §3, §2

[9] = test system: Candida krusei ATCC 14243; assay: Broth microdilution MIC/MFC, antifungal; assay type: cell-based; conditions: Pichia kudriavzevii, ATCC14243
Experimental: as §3, §2

[10] = test system: Candida lusitaniae ATCC 3449; assay: Broth microdilution MIC/MFC, antifungal; assay type: cell-based; conditions: Clavispora lusitaniae, ATCC3449
Experimental: as §3, §2

[11] = test system: Candida tropicalis ATCC 1369; assay: Broth microdilution MIC/MFC, antifungal; assay type: cell-based; conditions: ATCC1369
Experimental: as §3, §2

MDA-MB-231 = assay: MTT cell viability assay; assay type: cell-based, human; conditions: for IC50: Homo sapiens, MDA-MB-231, MTT, read-out: Cytotoxic activity IC50
Experimental: (§4) All the cell lines were purchased from the American Type Culture Collection (ATCC, Rockville, MD, USA) and cultured in strictly defined conditions according to the recommended ATCC protocol. The PC3 cells were cultured in RPMI 1640 (Roswell Park Memorial Institute, Biowest SAS, Nuaillé, France), while the MDA-MB-231 and HaCaT cells were maintained in DMEM (Dulbecco’s Modified Eagle’s Medium, Biowest SAS, Nuaillé, France) supplemented with 1% streptomycin and penicillin and in 10% heat-inactivated fetal bovine serum (FBS, Gibco BRL San Francisco, CA, USA) with 1% streptomycin and penicillin. The cells were incubated in a 37 °C/5% CO2 humidified incubator. They were cultured until 80–90% confluence was achieved. Then, they were harvested by treatment with 0.25% trypsin-0.02% EDTA (Gibco BRL, San Francisco, CA, USA) and used in the experiments. Untreated cells were used as a control. […] After 24 h of incubation, the culture medium was replaced with a fresh medium. […] Then, the medium was aspirated and formed formazan crystals were solubilized by adding isopropanol-DMSO mixture (1:1 vol). The intensity of the dissolved crystals was measured using a UVM 340 reader (ASYS Hitech GmbH, Eugendorf, Austria) at a wavelength of 570 nm. Cell viability was estimated by the percentage of MTT reduction in cells to which the tested compounds were added, compared to the control sample, where only the medium was added. The experiments were repeated three times. The IC50 was calculated using GraphPad Prism 9.0.0 (GraphPad Software).

PC3 = assay: MTT cell viability assay; assay type: cell-based, human; conditions: for IC50: Homo sapiens, PC-3, PC3, MTT, read-out: Cytotoxic activity IC50
Experimental: as §4

MTT cell viability assay = assay type: cell-based; conditions: human, HaCaT cells (immortal keratinocytes), HaCaT normal cell line, read-out: Cytotoxic activity IC50 (converted)
Experimental: as §4

[12] = test system: Escherichia coli ATCC 25922; assay: Broth microdilution MIC/MBC, antibacterial; assay type: cell-based; conditions: ATCC25922, Escherichia coli ATCC 25922
Experimental: as §1, §2

[13] = test system: Klebsiella pneumoniae ATCC 13883; assay: Broth microdilution MIC/MBC, antibacterial; assay type: cell-based; conditions: ATCC13883, Klebsiella pneumoniae ATCC 13883
Experimental: as §1, §2

## Cc1cccc(C=Nn2c(-c3cccc(F)c3)n[nH]c2=S)c1 [RO9, 5-(3-fluorophenyl)-4-[(3-methylbenzylidene)amino]-2,4-dihydro-3H-1,2,4-triazole-3-thione]
[1]
  MBC: > 1000 µg/mL
  MIC: 500 µg/mL (≈ 1600 µM)
[2]
  MBC: > 1000 µg/mL
  MIC: 125 µg/mL (≈ 400 µM)
[3]
  MIC: > 1000 µg/mL
[4]
  MBC: > 1000 µg/mL
  MIC: 125 µg/mL (≈ 400 µM)
[5]
  MBC: > 1000 µg/mL
  MIC: 250 µg/mL (≈ 800 µM)
[6]
  MIC: 1000 µg/mL (≈ 3200 µM)
  MFC: > 1000 µg/mL
Candida auris CDC B11903
  MIC: > 1000 µg/mL
[7]
  MIC: > 1000 µg/mL
[8]
  MIC: > 1000 µg/mL
[9]
  MIC: > 1000 µg/mL
[10]
  MIC: > 1000 µg/mL
[11]
  MIC: > 1000 µg/mL
MDA-MB-231; 72 h (table footnote)
  IC50: > 100 µM
MDA-MB-231; same value in µg/mL
  IC50: > 31.2 µg/mL
PC3; 72 h (table footnote)
  IC50: > 100 µM
PC3; same value in µg/mL
  IC50: > 31.2 µg/mL
MTT cell viability assay; 72 h (table footnote)
  IC50 at 72 h: > 100 µM
MTT cell viability assay; same value in µg/mL
  IC50 at 72 h: > 31.2 µg/mL
other
  melting point: 232 to 234 °C

## CCCOc1ccc(/C=N/n2c(-c3cccc(F)c3)n[nH]c2=S)cc1 [RO6, 5-(3-fluorofenylo)-4-[(4-propoxybenzylidene)amino]-2,4-dihydro-3H-1,2,4-triazole-3-thione]
other
  melting point: 189 to 192 °C

## COc1cccc2c1C(=O)c1c(O)c3c(c(O)c1C2=O)C[C@@](O)(C(=O)CO)C[C@@H]3O[C@H]1C[C@H](N)[C@H](O)[C@H](C)O1 [Doxorubicin, reference compound]
MDA-MB-231; 72 h (table footnote)
  IC50: 0.83 µM
MDA-MB-231; IC50 normal cell line (HaCaT)/IC50 MDA-MB-231
  SI (Selectivity Index): 0.36
PC3; 72 h (table footnote)
  IC50: 0.3 µM
PC3; IC50 normal cell line (HaCaT)/IC50 PC3
  SI (Selectivity Index): 1
MTT cell viability assay; 72 h (table footnote)
  IC50 at 72 h: 0.3 µM

## CCCCOc1ccc(C=Nn2c(-c3cccc(F)c3)n[nH]c2=S)cc1 [RO8, 4-[(4-butoxybenzylidene)amino]-5-(3-fluorophenyl)-2,4-dihydro-3H-1,2,4-triazole-3-thione]
[1]
  MIC: 1000 µg/mL (≈ 2700 µM)
[12]
  MIC: 1000 µg/mL (≈ 2700 µM)
[13]
  MIC: > 1000 µg/mL
[2]
  MBC: > 1000 µg/mL
  MIC: 125 µg/mL (≈ 337 µM)
[3]
  MIC: > 1000 µg/mL
[4]
  MBC: > 1000 µg/mL
  MIC: 250 µg/mL (≈ 675 µM)
[5]
  MBC: > 1000 µg/mL
  MIC: 250 µg/mL (≈ 675 µM)
[6]
  MIC: 500 µg/mL (≈ 1350 µM)
  MFC: > 1000 µg/mL
Candida auris CDC B11903
  MIC: > 1000 µg/mL
[7]
  MFC: > 1000 µg/mL
  MIC: 500 µg/mL (≈ 1350 µM)
[8]
  MIC: > 1000 µg/mL
[9]
  MIC: > 1000 µg/mL
[10]
  MIC: > 1000 µg/mL
[11]
  MIC: > 1000 µg/mL
MDA-MB-231; 72 h (table footnote)
  IC50: > 100 µM
MDA-MB-231; same value in µg/mL
  IC50: > 37 µg/mL
PC3; 72 h (table footnote)
  IC50: > 100 µM
PC3; same value in µg/mL
  IC50: > 37 µg/mL
MTT cell viability assay; 72 h (table footnote)
  IC50 at 72 h: > 100 µM
MTT cell viability assay; same value in µg/mL
  IC50 at 72 h: > 37 µg/mL
other
  melting point: 183 to 185 °C

## Cc1ccccc1C=Nn1c(-c2cccc(F)c2)n[nH]c1=S [RO10, 5-(3-fluorophenyl)-4-[(2-methylbenzylidene)amino]-2,4-dihydro-3H-1,2,4-triazole-3-thione]
[1]
  MIC: > 1000 µg/mL
[12]
  MIC: > 1000 µg/mL
[13]
  MIC: > 1000 µg/mL
[2]
  MIC: > 1000 µg/mL
[3]
  MIC: > 1000 µg/mL
[4]
  MBC: > 1000 µg/mL
  MIC: 125 µg/mL (≈ 400 µM)
[5]
  MIC: 1000 µg/mL (≈ 3200 µM)
[6]
  MIC: 500 µg/mL (≈ 1600 µM)
  MFC: > 1000 µg/mL
Candida auris CDC B11903
  MIC: 1000 µg/mL (≈ 3200 µM)
[7]
  MFC: > 1000 µg/mL
  MIC: 500 µg/mL (≈ 1600 µM)
[8]
  MFC: > 1000 µg/mL
  MIC: 500 µg/mL (≈ 1600 µM)
[9]
  MIC: > 1000 µg/mL
[10]
  MIC: > 1000 µg/mL
[11]
  MFC: > 1000 µg/mL
  MIC: 500 µg/mL (≈ 1600 µM)
MDA-MB-231; 72 h (table footnote)
  IC50: > 100 µM
MDA-MB-231; same value in µg/mL
  IC50: > 31.2 µg/mL
PC3; 72 h (table footnote)
  IC50: > 100 µM
PC3; same value in µg/mL
  IC50: > 31.2 µg/mL
MTT cell viability assay; 72 h (table footnote)
  IC50 at 72 h: > 100 µM
MTT cell viability assay; same value in µg/mL
  IC50 at 72 h: > 31.2 µg/mL
other
  melting point: 223 to 224 °C

## Cc1ccc(C=Nn2c(-c3cccc(F)c3)n[nH]c2=S)cc1 [RO1, 5-(3-fluorophenyl)-4-[(4-methylbenzylidene)amino]-2,4-dihydro-3H-1,2,4-triazole-3-thione]
[1]
  MIC: > 1000 µg/mL
[12]
  MIC: > 1000 µg/mL
[13]
  MIC: > 1000 µg/mL
[2]
  MIC: > 1000 µg/mL
[3]
  MIC: > 1000 µg/mL
[4]
  MIC: > 1000 µg/mL
[5]
  MIC: > 1000 µg/mL
[6]
  MIC: 250 µg/mL (≈ 800 µM)
  MFC: > 1000 µg/mL
Candida auris CDC B11903
  MIC: > 1000 µg/mL
[7]
  MIC: > 1000 µg/mL
[8]
  MIC: > 1000 µg/mL
[9]
  MIC: > 1000 µg/mL
[10]
  MIC: > 1000 µg/mL
[11]
  MIC: > 1000 µg/mL
MDA-MB-231; 72 h (table footnote)
  IC50: > 100 µM
MDA-MB-231; same value in µg/mL
  IC50: > 31.2 µg/mL
PC3; 72 h (table footnote)
  IC50: > 100 µM
PC3; same value in µg/mL
  IC50: > 31.2 µg/mL
MTT cell viability assay; 72 h (table footnote)
  IC50 at 72 h: > 100 µM
MTT cell viability assay; same value in µg/mL
  IC50 at 72 h: > 31.2 µg/mL
other
  melting point: 227 to 230 °C
